In patent US9540391B2, “Isomannide derivatives as inhibitors of soluble epoxide hydrolase” (SANOFI, priority 2013, dated 2017):
Counter-ions that a name gives are not always drawn.

What follows are compounds tested against T1, recombinant sEH (Homo sapiens, UniProt P34913) (assay: biochemical screening assay for inhibition of soluble epoxide hydrolase (fluorometric, Phome substrate)).
T1 construct: made in house; host or cells: Sf9 insect cells
T1 sequence (P34913 1-555): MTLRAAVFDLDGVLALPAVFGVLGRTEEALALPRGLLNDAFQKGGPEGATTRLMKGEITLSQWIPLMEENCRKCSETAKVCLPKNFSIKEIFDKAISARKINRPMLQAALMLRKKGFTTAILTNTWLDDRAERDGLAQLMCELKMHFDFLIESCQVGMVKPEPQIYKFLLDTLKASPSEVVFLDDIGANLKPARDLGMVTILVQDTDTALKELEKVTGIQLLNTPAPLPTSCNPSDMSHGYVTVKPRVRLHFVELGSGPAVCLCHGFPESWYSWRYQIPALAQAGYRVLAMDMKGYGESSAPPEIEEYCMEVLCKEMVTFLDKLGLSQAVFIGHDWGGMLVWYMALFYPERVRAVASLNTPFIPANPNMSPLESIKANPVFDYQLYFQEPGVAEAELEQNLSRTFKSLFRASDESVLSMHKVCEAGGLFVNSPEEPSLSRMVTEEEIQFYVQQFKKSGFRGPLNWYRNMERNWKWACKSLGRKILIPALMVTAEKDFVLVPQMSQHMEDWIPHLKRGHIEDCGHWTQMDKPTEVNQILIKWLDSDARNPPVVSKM
Procedure: The ability of the compounds of the formula I to inhibit soluble epoxide hydrolase can be determined as follows:
Compounds were tested in a biochemical screening assay using recombinant sEH purified from Sf9 insect cells and an artificial substrate, (3-phenyl-oxiranyl)-acetic acid cyano-(6-methoxy-naphtalen-2-yl)-methyl ester, Phome. The biochemical assay was performed in analogy to a fluorometric method described in the literature (P. D. Jones et al., Anal. Biochem. 2005, 343, 66-75). The assay principle bases on the sEH-catalyzed hydrolysis of an artificial α-cyano-ester substrate. 0-deacetylation liberates a cyanohydrin intermediate that rapidly decomposes to the highly fluorescent 6-methoxy-2-naphtaldehyde. To discriminate sample autofluorescence, the assay was carried out as a kinetic measurement with two time points. The first measurement is performed immediately before addition of the substrate and the second measurement is done after completion of the assay. The assay format is either in 96- or in 384-well format. Details of the assay using a 96-well plate format are described below. 40 μL recombinant sEH enzyme and 5 μL test compound are pre-incubated for 15 minutes at 30° C. Following pre-incubation, the reaction is started by addition of 5 μL Phome. The assay mixture containing 2 nM final sEH concentration, test compound ranging in a concentration from 0.0001-10 μM and 5 μM Phome is incubated for 60 minutes at 30° C.
Fluorescence can be measured with any suitable detector for instance a TECAN Safire or Tecan Ultra at […]. % inhibition of recombinant sEH activity is used for calculation of corresponding IC50 values as illustrated and described in the examples.
The NCBI gene bank reference sequence with the accession number NM_001979 for EPHX2/sEH was applied for recombinant protein production:
The following commercially available materials have been used: • Incubation reagent: 25 mM Hepes (Sigma-Aldrich, Cat. No H-3375), 0.01% bovine albumin (Sigma-Aldrich Cat. No PA9205) • Substrate: 3-Phenyl-oxiranyl)-acetic acid cyano-(6-methoxy-naphtalen-2-yl)-methyl ester, Phome (Biozol Cat. No 10003134) • Microtiter plates: 96-well plates (Greiner Cat. No 655180; Costar Cat. No 3915)

| IC50 | Structure (SMILES) |
| --- | --- |
| 140 nM | O=C(NC1CCCCC1)N[C@H]1CO[C@H]2[C@@H]1OC[C@@H]2Oc1ccccc1C(=O)N1CCCC1 [Example 110, 1-Cyclohexyl-3-{(3S,3aR,6S,6aS)-6-[2-(pyrrolidine-1-carbonyl)-phenoxy]-hexahydro-furo[3,2-b]furan-3-yl}-urea] |
| 25 nM | Cc1ncc(O[C@H]2CO[C@H]3[C@@H]2OC[C@@H]3NC(=O)NC2CCCCC2)cn1 [Example 41, 1-Cyclohexyl-3-[(3S,3aR,6S,6aS)-6-(2-methyl-pyrimidin-5-yloxy)-hexa-hydro-furo[3,2-b]furan-3-yl]-urea] |
| 81 nM | O=C(Nc1ccc(OCc2ccccc2)cc1)NC1COC2C(C=Cc3ccccc3)COC12 [Example 324, 1-(4-Benzyloxy-phenyl)-3-[(3S,3aR,6R)-6-((S)-(Z)-styryl)-hexa-hydro-furo[3,2-b]furan-3-yl]-urea] |
| 2 nM | CCOC(=O)c1cccc(O[C@H]2CO[C@H]3[C@@H]2OC[C@@H]3NC(=O)NC2CCCCC2)c1 [Example 141, 3-[(3S,3aS,6S,6aR)-6-(3-Cyclohexyl-ureido)-hexahydro-furo[3,2-b]furan-3-yloxy]-benzoic acid ethyl ester] |
| 2 nM | CCC(OC)(c1cccc(O[C@H]2CO[C@H]3[C@@H]2OC[C@@H]3NC(=O)NC2CCCCC2)c1)c1nccs1 (stereo partly drawn) [Example 122, 1-Cyclohexyl-3-{(3S,3aR,6S,6aS)-6-[3-(1-methoxy-1-thiazol-2-yl-propyl)-phenoxy]-hexahydro-furo[3,2-b]furan-3-yl}-urea] |
| 26 nM | CCOC(=O)CC[C@H]1CO[C@H]2[C@@H]1OC[C@@H]2NC(=O)NC1CCCCC1 [Example 376, 3-[(3S,3aR,6S,6aR)-6-(3-Cyclohexyl-ureido)-hexahydro-furo[3,2-b]furan-3-yl]-propionic acid ethyl ester] |
| 73 nM | Cc1ncccc1O[C@H]1CO[C@H]2[C@@H]1OC[C@@H]2NC(=O)NC1(C)CCCCC1 [Example 249, 1-(1-Methyl-cyclohexyl)-3-[(3S,3aR,6S,6aS)-6-(2-methyl-pyridin-3-yloxy)-hexahydro-furo[3,2-b]furan-3-yl]-urea] |
| 2 nM | CC(C)(O)c1cncc(O[C@H]2CO[C@H]3[C@@H]2OC[C@@H]3NC(=O)NC2CCCCC2)c1 [Example 68, 1-cyclohexyl-3-{(3S,3aR,6S,6aS)-6-[5-(1-hydroxy-1-methyl-ethyl)-pyridin-3-yloxy]-hexahydro-furo[3,2-b]furan-3-yl}-urea; hydrochloride] |
| 2 nM | CC(=O)Nc1cccc(O[C@H]2CO[C@H]3[C@@H]2OC[C@@H]3NC(=O)NC2CCCCC2)c1 [Example 102, N-{3-[(3S,3aS,6S,6aR)-6-(3-Cyclohexyl-ureido)-hexahydro-furo[3,2-b]furan-3-yloxy]-phenyl}-acetamide] |
| 19 nM | O=C(NC1CCCCC1)N[C@H]1CO[C@H]2[C@@H]1OC[C@@H]2SCCO [Example 14, 1-Cyclohexyl-3-[(3S,3aR,6S,6aS)-6-(2-hydroxy-ethylsulfanyl)-hexahydro-furo[3,2-b]furan-3-yl]-urea] |
| 12 nM | O=C(NC1CCCCC1)NC1COC2C(C#Cc3ccccc3)COC12 [Example 282, 1-Cyclohexyl-3-((3S,3aR,6S,-6aR)-6-phenylethynyl-hexa-hydro-furo[3,2-b]furan-3-yl)-urea] |
| 792 nM | Cc1ncccc1O[C@H]1CO[C@H]2[C@@H]1OC[C@@H]2NC(=O)NCC1CC(=O)N(C(C)C)C1 (stereo partly drawn) [Example 253, 1-(1-Isopropyl-5-oxo-pyrrolidin-3-ylmethyl)-3-[(3S,3aR,6S,6aS)-6-(2-methyl-pyridin-3-yloxy)-hexahydro-furo[3,2-b]furan-3-yl]-urea] |
| 190 nM | O=C(Nc1ccccc1)NC1COC2C(C=Cc3ccccc3)COC12 [Example 323, 1-Phenyl-3-[(3S,3aR,6R)-6-((S)-(Z)-styryl)-hexahydro-furo[3,2-b]furan-3-yl]-urea] |
| 8 nM | Cc1ccc(O[C@H]2CO[C@H]3[C@@H]2OC[C@@H]3NC(=O)NC2CCCCC2)cn1 [Example 28, 1-Cyclohexyl-3-[(3S,3aR,6S,6aS)-6-(6-methyl-pyridin-3-yloxy)-hexahydro-furo[3,2-b]furan-3-yl]-urea] |
| 17 nM | O=C(NC1CCC(F)(F)CC1)N[C@H]1CO[C@H]2[C@@H]1OC[C@@H]2Oc1ccc(F)cc1 [Example 77, 1-(4,4-difluoro-cyclohexyl)-3-[(3S,3aR,6S,6aS)-6-(4-fluoro-phenoxy)-hexahydro-furo[3,2-b]furan-3-yl]-urea] |
| 11 nM | O=C(NC1CCCCC1)N[C@H]1CO[C@H]2[C@@H]1OC[C@@H]2Sc1ncc[nH]1 [Example 48, 1-Cyclohexyl-3-[(3S,3aR,6S,6aS)-6-(1H-imidazol-2-ylsulfanyl)-hexa-hydro-furo[3,2-b]furan-3-yl]-urea] |
| 27 nM | O=C(Nc1ccc(Cl)c(Cl)c1)NC1COC2C(C=Cc3ccccc3)COC12 [Example 326, 1-(3,4-Dichloro-phenyl)-3-[(3S,3aR,6R)-6-((S)-(Z)-styryl)-hexa-hydro-furo[3,2-b]furan-3-yl]-urea] |
| 111 nM | Cc1ncccc1O[C@H]1CO[C@H]2[C@@H]1OC[C@@H]2NC(=O)N[C@@H]1CCCC[C@H]1C(C)(C)C [Example 265, 1-((1R,2S)-2-tert-Butyl-cyclohexyl)-3-[(3S,3aR,6S,6aS)-6-(2-methyl-pyridin-3-yloxy)-hexahydro-furo[3,2-b]furan-3-yl]-urea] |
| 2 nM | O=C(NC1CCCCC1)N[C@H]1CO[C@H]2[C@@H]1OC[C@@H]2Oc1cc(F)ccc1Cl [Example 131, 1-[(3S,3aR,6S,6aS)-6-(2-Chloro-5-fluoro-phenoxy)-hexahydro-furo[3,2-b]furan-3-yl]-3-cyclohexyl-urea] |
| 44 nM | O=C(Nc1cccc(C(F)(F)F)c1)N[C@H]1CO[C@H]2[C@@H]1OC[C@@H]2/C=C\c1ccccc1 [Example 333, 1-[(3S,3aR,6S,6aR)-6-((Z)-Styryl)-hexahydro-furo[3,2-b]furan-3-yl]-3-(3-trifluoromethyl-phenyl)-urea] |
| 3 nM | O=C(NC1CCCCC1)N[C@H]1CO[C@H]2[C@@H]1OC[C@@H]2Oc1cccc([N+](=O)[O-])c1 [Example 140, 1-Cyclohexyl-3-[(3S,3aR,6S,6aS)-6-(3-nitro-phenoxy)-hexahydro-furo[3,2-b]furan-3-yl]-urea] |
| 65 nM | Cc1ncccc1O[C@H]1CO[C@H]2[C@@H]1OC[C@@H]2NC(=O)NC1CC(=O)N(c2ccccc2)C1 (stereo partly drawn) [Example 247, 1-[(3S,3aR,6S,6aS)-6-(2-Methyl-pyridin-3-yloxy)-hexahydro-furo[3,2-b]furan-3-yl]-3-(5-oxo-1-phenyl-pyrrolidin-3-yl)-urea] |
| 2160 nM | CC(C)(C)NC(=O)N[C@H]1CO[C@H]2[C@@H]1OC[C@@H]2Oc1ccc(F)cc1 [Example 149, 1-tert-Butyl-3-[(3S,3aR,6S,6aS)-6-(4-fluoro-phenoxy)-hexahydro-furo[3,2-b]furan-3-yl]-urea] |
| 66 nM | COc1cc(NC(=O)NC2COC3C(C=Cc4ccccc4)COC23)cc(OC)c1 [Example 321, 1-(3,5-Dimethoxy-phenyl)-3-[(3S,3aR,6R)-6-((S)-(Z)-styryl)-hexa-hydro-furo[3,2-b]furan-3-yl]-urea] |
| 1 nM | O=C(NC1CCCCC1)N[C@H]1CO[C@H]2[C@@H]1OC[C@@H]2Sc1ccccn1 [Example 54, 1-Cyclohexyl-3-[(3S,3aR,6S,6aS)-6-(pyridin-2-ylsulfanyl)-hexahydro-furo[3,2-b]furan-3-yl]-urea] |
| 577 nM | Cc1ncccc1O[C@H]1CO[C@H]2[C@@H]1OC[C@@H]2NC(=O)NC(C)CN1CCCC1=O (stereo partly drawn) [Example 244, 1-[1-Methyl-2-(2-oxo-pyrrolidin-1-yl)-ethyl]-3-[(3S,3aR,6S,6aS)-6-(2-methyl-pyridin-3-yloxy)-hexahydro-furo[3,2-b]furan-3-yl]-urea] |
| 665 nM | COc1cc(NC(=O)NC2COC3C(C=Cc4ccsc4)COC23)cc(OC)c1 [Example 335, 1-(3,5-Dimethoxy-phenyl)-3-[(3S,3aR,-6S,6aR)-6-((Z)-2-thiophen-3-yl-vinyl)-hexahydro-furo[3,2-b]furan-3-yl]-urea] |
